Molecules are shown by their SMILES. Bounds are passed on as bounds.

For the compound `CN(C)c1ccc(NC(=O)N(C[C@@H]2CCCC[C@H]2CN(C(=O)Nc2ccc(N(C)C)cc2)C2CCCCCC2)C2CCCCCC2)cc1` (relative stereo), the melting point (usually the temperature, or range, at which the solid turns liquid) is 107 to 112 °C.

On to `Nc1ccc(C(=O)c2ccccc2)cc1F`, for which the melting point lay in the range of 83 to 85 °C. Compound `CCNC(=NC#N)NC` gave a melting point of 120 to 124 °C.

In turn, `COC(=O)C(O)(c1ccc(OC)cc1)c1ccc(OC)cc1` showed a melting point of 110 °C. In turn, `OC1CSC(Oc2ccccc2-c2nc3ccccc3s2)C(O)C1O` (centres undefined) came in with a melting point of 196 °C. Take `Cc1[nH]n(C)c2nc(-c3ccncc3)nc(=O)c1-2`: the melting point was > 301 °C. In turn, `CCc1cc(C(N)=O)nn1CC` displayed a melting point of 129 to 131 °C.

The compound `CC(C)(C)C(=O)c1c[nH]c2ncc(-c3ccc(N4CCN(CCO)CC4)cc3)nc12` registered a melting point of 211 to 213 °C.

In the case of `C1=Cn2cnnc2Cc2ccsc21`, the melting point stood at 146 °C.

On to `C1=CCC2=C(C1)CCc1ccccc1C2`, for which the melting point was 42.5 to 43 °C.

Compound `CCN1C(=O)COc2ccc(-c3nn[nH]c3-c3cccc(C)n3)cc21` had a melting point of 187 °C.

In the case of `CCNC1=NS(=O)(=O)c2sc(Cl)cc2N1`, the melting point was 271 to 274 °C. In the case of `CN(C)CC=C(c1ccc(-c2ccccc2)cc1)c1ccc(-c2ccccc2)cc1` it was 94 to 95 °C.

`COc1cc(Nc2nc3cccc(-c4ccc5[nH]cnc5c4)c3o2)cc(OC)c1OC` returned a melting point of 150 to 156 °C.

On to `CC(=O)CC(=O)c1cc(Cl)c(Cl)cc1O`, for which the melting point lay in the range of 134 to 135 °C.

As to `O=c1cc(COC2CCCCO2)occ1OCCCCCBr` (centres undefined), the melting point came to 140 °C. In turn, `CC(C)(Oc1ccc(CCC(=O)c2ccc(-c3ccc(C(F)(F)F)cc3)o2)c(Cl)c1Cl)C(=O)O` displayed a melting point of 85 °C. Compound `Cc1ccccc1NC(=N)NC12CC3CC(CC(C3)C1)C2` returned a melting point of 160 to 161 °C. Compound `O=C1C(=Cc2ccsc2)CCc2cc(OCCc3c[nH]cn3)ccc21` showed a melting point of 94 to 96 °C.

The compound `COc1cc(N2CCN([C@H](C)c3ccc(OC)c(OC)c3)CC2)ccc1Cl` gave a melting point of 172 to 176 °C.

As to `O=C1N(CC(O)CO)c2ccccc2C12COc1cc3c(cc12)OCCO3` (centres undefined), the melting point was 179 to 181 °C. To `CCOC(=O)c1cc(Cl)c(OCc2ccccc2)c(Cl)c1` belongs 66 to 68 °C; to `c1ccc(-c2ncc(-c3cnc(-c4ccccc4)o3)cn2)cc1`, 228 to 231 °C. In the case of `CCCn1c(=O)c(C(=O)OCC)c(O)c2ccc(C)nc21` it was 128 to 130 °C; in that of `Cc1n[nH]c(=O)n1-c1ccc(OCC(F)(F)C(F)F)cc1`, 206 to 207 °C. Compound `CSCC(=O)[C@H](Cc1cccs1)NC(=O)[C@H](CC(C)C)NC(=O)OCc1ccccc1` displayed a melting point of 93 to 97 °C. With `O=C(O)CCCOc1ccc(C(=O)c2ccc(F)cc2)cc1`, the melting point lay within 109 to 111 °C. In the case of `N#Cc1cccc(/C=C/c2cc(Cl)cnc2N)c1` it was > 275 °C; in that of `Cc1c(C(=O)N(C)Cc2ccc3c(Br)c(OCC#N)ccc3c2)oc2ccccc12`, 35 to 38 °C. In the case of `COc1ccc(C=Cc2nc3c([nH]2)c(=O)n(C)c(=O)n3C)cc1OC` it was > 320 °C; in that of `O=C1N(Cc2ccccn2)c2ccccc2C12COc1cc3c(cc12)OCC3` (centres undefined), 198 to 200 °C. The compound `COC(=O)Cc1ccc2c(c1)C(C)(C)CCC2(C)C` yielded a melting point of 83 to 85 °C.

As for `Cc1c(C)c2c(c(C)c1NC(=O)NCCCCO)C(c1ccc(C(C)C)cc1)CO2` (centres undefined), the melting point was 145 to 146 °C. `CCN(CC)c1nc2n(n1)Cc1ccccc1-2` registered a melting point of 234 to 236 °C. To `Cc1cc(C)c(Oc2cc(Nc3ccc(C#N)cc3)c([N+](=O)[O-])cc2[N+](=O)[O-])c(C)c1` belongs 132 °C; to `COC(=O)c1cc(-c2ccc(-c3ccccc3)cc2)nn(CC(C)C)c1=O`, 186 to 195 °C; to `CCOC(=O)Cc1c(C)n(Cc2cccc(OC)c2)c2ccc(OCc3csc(-c4ccccc4)n3)cc12`, 85 to 86 °C. The compound `Cc1nc(-n2ccc(C(F)(F)F)cc2=O)sc1C(=O)NCc1ccccc1` returned a melting point of 197 to 198 °C.

The compound `N#Cc1ccc(OCCCCCCOc2cccc(-c3cc4cc(C#N)ccc4o3)c2)cc1` displayed a melting point of 134 to 136 °C.

The compound `CCOC(=O)c1c(C)nn(C)c1CS(=O)(=O)NC(=O)Nc1nc(OC)cc(OC)n1` yielded a melting point of 190 °C. To `CC1CC(Nc2nnc(-c3cccc(Oc4cccc(C(F)(F)F)c4)c3)s2)CC(C)(C)C1` (centres undefined) belongs 101 to 102 °C. With `CC(C)Nc1cccnc1N1CCN(C(=O)c2ccc(C(=O)N[C@H](CO)CC3CCCCC3)cc2)CC1`, the melting point lay in the range of 139 to 140 °C. `O=C1NC(=O)c2c1c(O)nc1cc(Cl)c(Cl)cc21`: the melting point is > 350 °C.

Turning to `CSCc1cnc2c(NC(=O)c3c(Cl)cccc3Cl)cccc2c1Cl`, the melting point lay in the range of 173 to 175 °C. To `CC(C)(C)COc1ccc([N+](=O)[O-])cc1Br` belongs 86 to 88 °C; to `COC(=O)CCCC#CCN1C(=O)c2ccccc2C1=O`, 62 to 63 °C; to `COc1ccc(-c2ccc(C(C)=O)cc2[N+](=O)[O-])c(OC)c1`, 129 to 131 °C. To `CN(CCC(=O)O)S(=O)(=O)c1c(Cl)cccc1Cl` belongs 115 °C. Compound `CCOC(=O)CC1(Cc2ccncc2)C(=O)N(N2CCOCC2)c2ccccc21` (centres undefined) returned a melting point of 168 °C. `CC(C)[C@H](C[C@H](O)[C@H](C)NC(=O)OC(C)(C)C)C(=O)NN` showed a melting point of 55 to 62 °C. To `CCCc1c(OCCCCCC(=O)c2cc(O)c(O)cc2F)ccc(C(=O)O)c1O` belongs 193 to 195 °C. To `O=C1c2ccccc2C(=O)c2c1c(Oc1ccc(CCCO)cc1)c1ccccc1c2Oc1ccc(CCCO)cc1` belongs 218 to 220 °C; to `CN1CCNC(=O)C1c1ccc(N)cc1` (centres undefined), 153 to 154 °C. Compound `COC(=O)Cc1nc(-c2ccc(C)cc2)oc1C` came in with a melting point of 59 to 60 °C. `CCc1cccc(-c2c(-c3ccc4nn(C)cc4c3)nsc2NC(=O)[C@@H]2C[C@H]2C)n1` registered a melting point of 159 °C. To `CC(C)C[C@H](NC(=O)OCc1ccc(Cl)cc1)C(=O)N[C@@H](Cc1ccccc1)C(=O)CSCc1ccco1` belongs 123 to 124 °C; to `O=C(CCCl)Nc1cccc(NC(=O)Nc2ccc(N(CCCl)CCCl)cc2)c1`, 232 to 233 °C; to `COc1cc(-n2cccn2)ccc1-n1cc(OC)c(=O)c(-c2ccnn2-c2ccccc2)n1`, 133 to 135 °C. In the case of `O=C(c1cccnc1)N1CCC(c2ccccc2Cl)=N1`, the melting point lay within 115 to 116 °C. In the case of `COc1ccc2nc3ccc(OC)cc3c(C(=O)O)c2c1` it was 192 to 193 °C; in that of `O=C(O)CS(=O)CCCCCn1nc(-c2ccccc2)c(-c2ccccc2)c1-c1ccccc1` (centres undefined), 129 to 130 °C; in that of `O=C(c1cccnc1)N1CCC=N1`, 81 to 82 °C. The compound `CCOC(=O)c1ncc2[nH]c3cccc(Cc4ccccc4Cl)c3c2c1COC` displayed a melting point of 182 to 184 °C. The compound `CC(CNc1ccc(Cl)cc1[N+](=O)[O-])OS(C)(=O)=O` (centres undefined) displayed a melting point of 106 to 108 °C. In the case of `NS(=O)(=O)c1ccc(-c2c(CC(O)c3ccc(Cl)cc3)noc2-c2ccccc2)cc1` (centres undefined) it was 165 to 167 °C; in that of `CC(C)(C)OC(=O)N1CCC(=Cc2ccc(F)cc2)CC1`, 69 to 70 °C. In the case of `CCOC(=O)C1(C(=O)OCC)CC(c2ccc(Cl)cc2[N+](=O)[O-])=CN1C(C)=O` it was 90 to 95 °C. To `Brc1ccc(SCc2ncon2)cc1` belongs 56 °C; to `Nc1ccc(OCc2ccc(Cl)cc2)cc1F`, 73 to 75 °C; to `Cc1ccc(C(=O)O)c(NC(=O)C(F)(F)F)c1`, 178 to 180 °C. For the compound `CC(C)c1nc(CN=[N+]=[N-])n(Cc2cccnc2)c1Sc1cc(Cl)cc(Cl)c1`, the melting point lay in the range of 99 to 103 °C. In the case of `Nc1nc(N)nc(-c2ccc(S(=O)(=O)c3ccccc3)cc2)n1`, the melting point is > 250 °C. To `CCOC(=O)C(C)Oc1ccc(Nc2ccc(C(F)(F)F)cc2N)cc1` (centres undefined) belongs 78 °C; to `COc1cc2c(Nc3ccc(Sc4nccn4C)c(Cl)c3)c(C#N)cnc2cc1N1CCC(N2CCOCC2)CC1`, 219 to 221 °C; to `O=C(Nc1csc(-c2ccncc2)n1)Nc1cccc2c1C1CCCCN1C2=O` (centres undefined), 152 °C.

`CC1CC2C3CCC4CC(O)CCC4(C)C3C(O)CC2(C)C1C1(C)OCCO1` (centres undefined): the melting point fell in the range of 109 to 111 °C. On to `CN(C(N)=S)c1ccc(-c2ncn(-c3ccc(OC(F)(F)F)cc3)n2)cc1`, for which the melting point is 142 to 152 °C. To `CC(=O)C(=Cc1ccc([N+](=O)[O-])cc1)CC(=O)OCCC#N` belongs 98 to 100 °C.

The compound `CCOC(=O)c1ccc(NC(=O)C(C)C)c([N+](=O)[O-])c1` showed a melting point of 74 to 76 °C. To `O=[N+]([O-])c1cnc2cccnc2c1NCc1ccccc1` belongs 127 to 129 °C; to `CCS(=O)(=O)N[C@@H]1CCCC[C@H]1OCC(=O)O` (relative stereo), 120 to 122 °C; to `Cc1cccc(C=NNc2nc(OCCc3ccccn3)nc(N3CCOCC3)n2)c1`, 143 to 147 °C. In the case of `CSc1cc2nnc(C)n2c(C)n1` it was 201 to 203 °C; in that of `C=C(C)COC(=O)N1CCN(c2c(C(=O)N3CCN(C)CC3)c3ccccc3n2-c2ccccc2)CC1`, 141 to 143 °C; in that of `O=c1c2c(c1=O)Nc1c(Cl)cc(C(F)(F)F)cc1N2`, 335 to 337 °C. In the case of `CN(CCC(=O)Nc1ccc2[nH]ncc2c1)Cc1ccccc1` it was 140 to 141 °C; in that of `O=S(=O)(Nc1ncnc(Cl)c1-c1ccc(C(F)(F)F)cc1)c1ccc(Cl)cc1`, 262 to 264 °C; in that of `CN1CCN(c2ccc(C#N)c3ccccc23)CC1`, 128 to 129 °C. On to `CC(C)(C)c1ccc(Cl)c(C(=O)O)c1`, for which the melting point fell in the range of 99 to 103 °C.
